Results on 35 molecules are retold here after US10092537B2, “Use for PAI-1 inhibitor” (RENASCIENCE CO., LTD., priority 2013, dated 2018).

Counter-ions that a name gives are not always drawn.

The target of the experiment is human PAI-1 (Homo sapiens, UniProt P05121). The experiment can be described thus: Measurement of PAI-1 inhibitory activity of compound group 1 (t-PA, Spectrozyme t-PA chromogenic substrate). The conditions noted are these: read-out: PAI-1 activity %.
Sequence of human PAI-1 (P05121 24-402): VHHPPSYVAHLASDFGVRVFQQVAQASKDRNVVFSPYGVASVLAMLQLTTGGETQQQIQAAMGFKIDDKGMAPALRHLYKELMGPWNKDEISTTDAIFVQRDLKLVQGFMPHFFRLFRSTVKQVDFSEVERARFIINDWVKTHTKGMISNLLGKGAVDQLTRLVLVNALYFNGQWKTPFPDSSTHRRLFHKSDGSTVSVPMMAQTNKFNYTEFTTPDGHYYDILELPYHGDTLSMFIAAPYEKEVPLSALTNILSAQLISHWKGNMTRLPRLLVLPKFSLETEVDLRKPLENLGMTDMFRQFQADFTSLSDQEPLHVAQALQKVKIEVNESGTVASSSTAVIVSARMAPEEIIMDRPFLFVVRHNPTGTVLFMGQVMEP
Procedure: Subsequently, human-derived tissue plasminogen activator (t-PA) (manufactured by American Diagnostica, Inc. (USA); the same applies hereinafter) adjusted to 0.05 pmol/μL was added thereto, and the mixture was further incubated at 37° C. for 60 minutes. Then, 0.25 mM of Spectrozyme t-PA synthetic substrate (manufactured by American Diagnostica, Inc. (USA); the same applies hereinafter), which is a chromogenic substrate, was added. The final mixture contained 50 mM Tris-HCl (pH 8), 150 mM NaCl, 1% DMSO, 0.1% PEG-6000, 0.2 mM CHAPS, 5 nM PAI-1, 2 nM t-PA, 0.2 mM Spectrozyme t-PA synthetic substrate, and each compound (10 μM or 2.5 μM).
Free radical p-nitroaniline removed from the chromogenic substrate (Spectrozyme t-PA) by t-PA action was measured using a spectrophotometer at an absorbance of 405 nm at 20-minute intervals, for 120 minutes.
In the case of `O=C(COc1ccc(-c2ccco2)cc1)Nc1ccc(Cl)cc1C(=O)O` [Example 54, 5-chloro-2-({[4-(furan-2-yl)phenoxy]acetyl}amino)benzoic acid], the activity at 2.5 µM was 94.4% and the activity at 10 µM came to 15.5%.

For the molecule `O=C(CCCOc1ccc(C23CC4CC(CC(C4)C2)C3)cc1)Nc1ccc(Cl)cc1C(=O)O` [Example 55, 2-({4-[4-(adamantan-1-yl)phenoxy]butanoyl}amino)-5-chlorobenzoic acid], the activity at 2.5 µM was determined as 29.8% and the activity at 10 µM is 1.1%.

Consider `O=C(Nc1ccc(Cl)cc1C(=O)O)c1ccc(C(=O)C23CC4CC(CC(C4)C2)C3)cc1` [Example 56, 2-({[4-(adamantan-1-ylcarbonyl)phenyl]carbonyl}amino)-5-chlorobenzoic acid], for which the activity at 2.5 µM stood at 75.8% and the activity at 10 µM is 0.7%.

Consider `O=C(Nc1ccc(Cl)cc1C(=O)O)C(=O)c1c[nH]c2ccc(OCc3ccccc3)cc12` [Example 57, 2-({[5-(benzyloxy)-1H-indol-3-yl](oxo)acetyl}amino)-5-chlorobenzoic acid], for which the activity at 2.5 µM is 38.6% and the activity at 10 µM is 0.2%.

On to `O=C(Nc1ccc(Cl)cc1C(=O)O)c1cccc(-c2cccc3ccccc23)c1` [Example 58, 5-chloro-2-({[3-(naphthalen-1-yl)phenyl]carbonyl}amino)benzoic acid], for which the activity at 2.5 µM came to 0% and the activity at 10 µM was 0%.

For `O=C(CCOc1ccc(C23CC4CC(CC(C4)C2)C3)cc1)Nc1ccc(Cl)cc1C(=O)O` [Example 59, 2-({3-[4-(adamantan-1-yl)phenoxy]propanoyl}amino)-5-chlorobenzoic acid], the activity at 2.5 µM was 56.3% and the activity at 10 µM turned out to be 1.4%.

For `O=C(O)c1cc(Cl)ccc1NC(=O)c1cc2cc(-c3ccccc3)ccc2n1CCCO` [Example 60, 5-chloro-2-({[1-(3-hydroxypropyl)-5-phenyl-1H-indol-2-yl]carbonyl}amino)benzoic acid], the activity at 2.5 µM stood at 25% and the activity at 10 µM came to 0.9%.

Consider `COc1ccccc1-c1cccc(OCC(=O)Nc2ccc(Cl)cc2C(=O)O)c1` [Example 61, 5-chloro-2-({[(2′-methoxybiphenyl-3-yl)oxy]acetyl}amino)benzoic acid], for which the activity at 2.5 µM was determined as 92.4% and the activity at 10 µM was found to be 38.9%.

Take `O=C(Nc1ccc(Cl)cc1C(=O)O)c1cccc(C23CC4CC(CC(C4)C2)C3)c1` [Example 62, 2-({[3-(adamantan-1-yl)phenyl]carbonyl}amino)-5-chlorobenzoic acid]: the activity at 2.5 µM was 29.1% and the activity at 10 µM came out at 0.6%.

`O=C(Nc1ccc(Cl)cc1C(=O)O)c1ccc(C2CCCCC2)cc1` [Example 69, 5-chloro-2-{[(4-cyclohexylphenyl)carbonyl]amino}benzoic acid]: the activity at 2.5 µM was 44.7% and the activity at 10 µM was found to be 0.6%.

On to `O=C(Cc1ccc(-c2ccccc2)cc1)Nc1ccc(Cl)cc1C(=O)O` [Example 70, 2-[(biphenyl-4-ylacetyl)amino]-5-chlorobenzoic acid], for which the activity at 2.5 µM amounted to 94.6% and the activity at 10 µM is 4.4%.

With `O=C(Nc1ccc(-c2ccccc2)cc1)Nc1ccc(Cl)cc1C(=O)O` [Example 71, 2-[(biphenyl-4-ylcarbamoyl)amino]-5-chlorobenzoic acid], the activity at 2.5 µM is 39.6% and the activity at 10 µM came out at 2.1%.

Regarding `Cc1ccc(-c2ccc(F)cc2)cc1NCC(=O)Nc1ccc(Cl)cc1C(=O)O` [Example 72, 5-chloro-2-{[N-(4′-fluoro-4-methylbiphenyl-3-yl)glycyl]amino}benzoic acid], the activity at 2.5 µM turned out to be 31.1% and the activity at 10 µM worked out at 3.6%.

Turning to `O=C(CNC(c1ccccc1)c1ccccc1)Nc1ccc(Cl)cc1C(=O)O` [Example 73, 5-chloro-2-{[N-(diphenylmethyl)glycyl]amino}benzoic acid], the activity at 2.5 µM came to 82.2% and the activity at 10 µM was found to be 31.2%.

In the case of `Cc1sc(NC(=O)c2ccc(C3CCCCC3)cc2)c(C(=O)O)c1-c1ccccc1` [Example 74, 2-{[(4-cyclohexylphenyl)carbonyl]amino}-5-methyl-4-phenylthiophene-3-carboxylic acid], the activity at 2.5 µM is 8.6% and the activity at 10 µM came to 0.2%.

Take `O=C(O)c1cc(Cl)ccc1NC(=O)N1CCN(C(c2ccccc2)c2ccccc2)CC1` [Example 75, 5-chloro-2-({[4-(diphenylmethyl)piperazin-1-yl]carbonyl}amino)benzoic acid hydrochloride]: the activity at 2.5 µM was 86.4% and the activity at 10 µM amounted to 4.7%.

As for `O=C(COC(c1ccccc1)c1ccccc1)Nc1ccc(Cl)cc1C(=O)O` [Example 76, 5-chloro-2-{[(diphenylmethoxy)acetyl]amino}benzoic acid], the activity at 2.5 µM worked out at 92.9% and the activity at 10 µM was 30.6%.

With `O=C(CN1CCN(C(c2ccccc2)c2ccccc2)CC1)Nc1ccc(Cl)cc1C(=O)O` [Example 77, 5-chloro-2-({[4-(diphenylmethyl)piperazin-1-yl]acetyl}amino)benzoic acid], the activity at 2.5 µM was found to be 89.6% and the activity at 10 µM is 19.3%.

For the molecule `O=C(/C=C/c1ccc(-c2ccccc2)cc1)Nc1ccc(Cl)cc1C(=O)O` [Example 78, 2-{[(2E)-3-(biphenyl-4-yl)prop-2-enoyl]amino}-5-chlorobenzoic acid], the activity at 2.5 µM was found to be 25.3% and the activity at 10 µM came to 0.3%.

With `O=C(Nc1ccc(Cl)cc1C(=O)O)c1cccc(C2=CCCCC2)c1` [Example 79, 5-chloro-2-({[3-(cyclohex-1-en-1-yl)phenyl]carbonyl}amino)benzoic acid], the activity at 2.5 µM was found to be 44.5% and the activity at 10 µM stood at 1.6%.

Turning to `O=C(Nc1ccc(Cl)cc1C(=O)O)c1cccc(C2CCCCC2)c1` [Example 80, 5-chloro-2-{[(3-cyclohexylphenyl)carbonyl]amino}benzoic acid], the activity at 2.5 µM was determined as 45.5% and the activity at 10 µM was 0%.

For the molecule `O=C(Nc1ccc(C2=CCCCC2)cc1C(=O)O)c1ccc(C2CCCCC2)cc1` [Example 81, 5-(cyclohex-1-en-1-yl)-2-{[(4-cyclohexylphenyl)carbonyl]amino}benzoic acid], the activity at 2.5 µM came to 1% and the activity at 10 µM was determined as 0%.

In the case of `O=C(Nc1ccc(C2CCCCC2)cc1C(=O)O)c1ccc(C2CCCCC2)cc1` [Example 82, 5-cyclohexyl-2-{[(4-cyclohexylphenyl)carbonyl]amino}benzoic acid], the activity at 2.5 µM came out at 1.7% and the activity at 10 µM was determined as 1.4%.

`O=C(Nc1ccc(Cl)cc1C(=O)O)c1ccc(N2CCCC2)cc1` [Example 83, 5-chloro-2-({[4-(pyrrolidin-1-yl)phenyl]carbonyl}amino)benzoic acid hydrochloride]: the activity at 2.5 µM was 99.1% and the activity at 10 µM was found to be 26.6%.

Consider `O=C(Nc1ccc(Cl)cc1C(=O)O)C1=CC2(CCCCC2)CCC1` [Example 84, 5-chloro-2-[(spiro[5.5]undec-1-en-2-ylcarbonyl)amino]benzoic acid], for which the activity at 2.5 µM worked out at 97% and the activity at 10 µM worked out at 5.5%.

`O=C(O)c1cc(Cl)ccc1NC(=O)C1CCCC2(CCCCC2)C1` (stereo not shown) [Example 85, 5-chloro-2-[(spiro[5.5]undec-2-ylcarbonyl)amino]benzoic acid]: the activity at 2.5 µM amounted to 97.5% and the activity at 10 µM was 11%.

Turning to `Cc1ccc(C23CC4CC(CC(C(=O)Nc5ccc(Cl)cc5C(=O)O)(C4)C2)C3)cc1` [Example 86, 5-chloro-2-({[3-(4-methylphenyl)adamantan-1-yl]carbonyl}amino)benzoic acid], the activity at 2.5 µM is 63.5% and the activity at 10 µM was determined as 1.4%.

In the case of `O=C(Nc1ccc(Cl)cc1C(=O)O)c1cccc(C#CC2CCCCC2)c1` [Example 87, 5-chloro-2-({[3-(cyclohexylethynyl)phenyl]carbonyl}amino)benzoic acid], the activity at 2.5 µM turned out to be 20.5% and the activity at 10 µM was found to be 1.2%.

Regarding `O=C(Nc1ccc(Cl)cc1C(=O)O)c1ccc(C#CC2CCCCC2)cc1` [Example 88, 5-chloro-2-({[4-(cyclohexylethynyl)phenyl]carbonyl}amino)benzoic acid], the activity at 2.5 µM came to 35.5% and the activity at 10 µM was determined as 0.8%.

Take `O=C(/C=C/c1cccc(-c2ccccc2)c1)Nc1ccc(Cl)cc1C(=O)O` [Example 89, 2-{[(2E)-3-(biphenyl-3-yl)prop-2-enoyl]amino}-5-chlorobenzoic acid]: the activity at 2.5 µM worked out at 60.7% and the activity at 10 µM stood at 0.1%.

For `O=C(/C=C/c1cccc(C2=CCCCC2)c1)Nc1ccc(Cl)cc1C(=O)O` [Example 90, 5-chloro-2-({(2E)-3-[3-(cyclohex-1-en-1-yl)phenyl]prop-2-enoyl}amino)benzoic acid], the activity at 2.5 µM worked out at 65.3% and the activity at 10 µM amounted to 0.1%.

Turning to `O=C(/C=C(/Cl)C1CCCCC1)Nc1ccc(Cl)cc1C(=O)O` [Example 91, 5-chloro-2-{[(2E)-3-chloro-3-cyclohexylprop-2-enoyl]amino}benzoic acid], the activity at 2.5 µM is 96.9% and the activity at 10 µM amounted to 16.7%.

On to `O=C(Nc1ccc(C#CC2CCCCC2)cc1C(=O)O)c1ccc(C2CCCCC2)cc1` [Example 92, 5-(cyclohexylethynyl)-2-{[(4-cyclohexylphenyl)carbonyl]amino}benzoic acid], for which the activity at 2.5 µM came to 0% and the activity at 10 µM is 0.4%.

With `O=C(Nc1ccc(CCC2CCCCC2)cc1C(=O)O)c1ccc(C2CCCCC2)cc1` [Example 93, 5-(2-cyclohexylethyl)-2-{[(4-cyclohexylphenyl)carbonyl]amino}benzoic acid], the activity at 2.5 µM was 0% and the activity at 10 µM is 0%.

For `O=C(C#Cc1ccc(C23CC4CC(CC(C4)C2)C3)cc1)Nc1ccc(Cl)cc1C(=O)O` [Example 94, 2-({3-[4-(adamantan-1-yl)phenyl]prop-2-ynoyl}amino)-5-chlorobenzoic acid], the activity at 2.5 µM was found to be 3.5% and the activity at 10 µM came out at 7.4%.
